Laboratory results from ChEMBL document CHEMBL5236640, “SAR study of 1,2-benzisothiazole dioxide compounds that agonize HIF-2 stabilization and EPO production” (Bioorg Med Chem, 2023).
Calls of active or inactive are those of the source. The calls are words filed in the database; no cut-off is given here.

Tests used:
[1] = biological target: Endothelial PAS domain-containing protein 1 (Homo sapiens) (UniProt Q99814); experiment: Agonist activity at human HIF-2alpha expressed in human 786-0 cells assessed as increase in NDRG1 transcription level at 20 uM incubated for 24 hrs by RT-PCR analysis relative to control; assay type: cell-based; conditions: filed as agonist
[2] = biological target: Endothelial PAS domain-containing protein 1 (Homo sapiens) (UniProt Q99814); experiment: Synergistic agonist activity at human HIF-2alpha expressed in human Hep3B cells assessed as induction of EPO transcription at 5 uM pretreated with FG4592 followed by compound addition and measured after 12 hrs by qRT-PCR analysis; assay type: cell-based; conditions: filed as agonist
[3] = biological target: Endothelial PAS domain-containing protein 1 (Homo sapiens) (UniProt Q99814); experiment: Agonist activity at human HIF-2alpha expressed in human 786-0 cells assessed as increase in PGK1 transcription level at 20 uM incubated for 24 hrs by RT-PCR analysis relative to control; assay type: cell-based; conditions: filed as agonist
[4] = biological target: Endothelial PAS domain-containing protein 1 (Homo sapiens) (UniProt Q99814); experiment: Agonist activity at human HIF-2alpha expressed in human 786-0 cells assessed as increase in GLUT1 transcription level at 20 uM incubated for 24 hrs by RT-PCR analysis relative to control; assay type: cell-based; conditions: filed as agonist
[5] = biological target: Aryl hydrocarbon receptor nuclear translocator/Endothelial PAS domain-containing protein 1 (Homo sapiens) (UniProt P27540+Q99814); conditions: filed as agonist, dose 10.0 µM
[6] = biological target: Endothelial PAS domain-containing protein 1 (Homo sapiens) (UniProt Q99814); experiment: Agonist activity at human HIF-2alpha expressed in human 786-0 cells assessed as increase in VEGFA transcription level at 20 uM incubated for 24 hrs by RT-PCR analysis relative to control; assay type: cell-based; conditions: filed as agonist
[7] = biological target: Endothelial PAS domain-containing protein 1 (Homo sapiens) (UniProt Q99814); experiment: Agonist activity at human HIF-2alpha expressed in human 786-0 cells assessed as increase in NDRG1 transcription level at 2 uM incubated for 24 hrs by RT-PCR analysis relative to control; assay type: cell-based; conditions: filed as agonist
[8] = biological target: Endothelial PAS domain-containing protein 1 (Homo sapiens) (UniProt Q99814); experiment: Agonist activity at human HIF-2alpha expressed in human 786-0 cells assessed as increase in NDRG1 transcription level at 0.2 uM incubated for 24 hrs by RT-PCR analysis relative to control; assay type: cell-based; conditions: filed as agonist
[9] = biological target: Endothelial PAS domain-containing protein 1 (Homo sapiens) (UniProt Q99814); experiment: Agonist activity at human HIF-2alpha expressed in human 786-0 cells assessed as increase in VEGFA transcription level at 0.2 uM incubated for 24 hrs by RT-PCR analysis relative to control; assay type: cell-based; conditions: filed as agonist
[10] = biological target: Endothelial PAS domain-containing protein 1 (Homo sapiens) (UniProt Q99814); experiment: Agonist activity at human HIF-2alpha expressed in human 786-0 cells assessed as increase in VEGFA transcription level at 2 uM incubated for 24 hrs by RT-PCR analysis relative to control; assay type: cell-based; conditions: filed as agonist

Aryl hydrocarbon receptor nuclear translocator/Endothelial PAS domain-containing protein 1 (Homo sapiens), sequence (P27540 2-789 limits assumed): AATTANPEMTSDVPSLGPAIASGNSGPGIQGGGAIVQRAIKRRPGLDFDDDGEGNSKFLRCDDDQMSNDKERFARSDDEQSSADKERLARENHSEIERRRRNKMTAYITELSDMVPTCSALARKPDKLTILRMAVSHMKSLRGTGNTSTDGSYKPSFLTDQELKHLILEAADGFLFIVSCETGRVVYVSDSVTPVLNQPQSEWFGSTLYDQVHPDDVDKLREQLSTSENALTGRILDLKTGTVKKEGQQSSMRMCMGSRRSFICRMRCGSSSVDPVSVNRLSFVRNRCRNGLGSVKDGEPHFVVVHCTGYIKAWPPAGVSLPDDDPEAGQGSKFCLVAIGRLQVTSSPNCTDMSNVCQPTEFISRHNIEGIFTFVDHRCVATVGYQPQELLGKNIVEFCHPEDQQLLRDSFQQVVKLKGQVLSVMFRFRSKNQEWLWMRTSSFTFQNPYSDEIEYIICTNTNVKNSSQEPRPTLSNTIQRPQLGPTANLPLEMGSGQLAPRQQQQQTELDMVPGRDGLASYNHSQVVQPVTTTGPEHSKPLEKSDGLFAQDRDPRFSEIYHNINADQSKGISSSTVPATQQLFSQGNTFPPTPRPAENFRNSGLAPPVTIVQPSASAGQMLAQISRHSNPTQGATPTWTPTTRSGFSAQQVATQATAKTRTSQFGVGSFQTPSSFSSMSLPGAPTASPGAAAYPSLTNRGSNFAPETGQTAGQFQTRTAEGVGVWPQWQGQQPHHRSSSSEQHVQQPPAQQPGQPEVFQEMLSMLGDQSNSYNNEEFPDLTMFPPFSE
Aryl hydrocarbon receptor nuclear translocator/Endothelial PAS domain-containing protein 1 (Homo sapiens), sequence (Q99814 whole entry partner, the tested form may be a part): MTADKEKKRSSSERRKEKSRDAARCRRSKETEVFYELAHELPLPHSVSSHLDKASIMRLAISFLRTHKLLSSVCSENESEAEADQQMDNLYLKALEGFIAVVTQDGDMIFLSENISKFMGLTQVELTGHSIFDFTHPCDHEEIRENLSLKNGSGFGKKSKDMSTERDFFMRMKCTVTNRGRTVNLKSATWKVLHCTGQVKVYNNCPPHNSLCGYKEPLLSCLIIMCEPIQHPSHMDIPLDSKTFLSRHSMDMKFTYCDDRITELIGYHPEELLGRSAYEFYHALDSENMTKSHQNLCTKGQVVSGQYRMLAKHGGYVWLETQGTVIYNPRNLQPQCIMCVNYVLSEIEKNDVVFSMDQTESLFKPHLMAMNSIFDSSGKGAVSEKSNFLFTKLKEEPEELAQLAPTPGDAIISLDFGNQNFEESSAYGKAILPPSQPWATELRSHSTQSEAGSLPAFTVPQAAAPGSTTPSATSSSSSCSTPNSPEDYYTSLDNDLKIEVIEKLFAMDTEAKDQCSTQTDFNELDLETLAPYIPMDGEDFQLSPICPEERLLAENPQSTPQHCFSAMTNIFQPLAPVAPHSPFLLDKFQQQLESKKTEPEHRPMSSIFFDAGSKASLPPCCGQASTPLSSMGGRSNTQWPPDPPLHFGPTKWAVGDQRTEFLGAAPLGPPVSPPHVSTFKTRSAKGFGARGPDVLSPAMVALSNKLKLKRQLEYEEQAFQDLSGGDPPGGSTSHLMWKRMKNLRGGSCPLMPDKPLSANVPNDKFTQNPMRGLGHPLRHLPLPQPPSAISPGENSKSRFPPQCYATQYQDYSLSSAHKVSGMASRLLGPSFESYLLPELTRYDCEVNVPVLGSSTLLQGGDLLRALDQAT
Endothelial PAS domain-containing protein 1 (Homo sapiens), sequence (Q99814 whole entry, the tested form may be a part): as the sequence (Q99814 whole entry partner, the tested form may be a part) above

Row | SMILES | Activity [1] [%] | Activity [2] | Activity [3] [%] | ΔTm [5] [°C] | Activity [6] [%] | also measured
1 | FC(F)(F)c1cc(Nc2csc3ccccc23)cc(C(F)(F)F)c1 | 92.1 |  | 62 | 0.1 | 102 | Activity [4]: 87.4%
2 | O=S1(=O)N=C(Nc2cc(F)cc(F)c2)c2ccc(Br)cc21 |  |  |  | -0.06 |  | 
3 | O=S1(=O)N=C(Nc2cc(C(F)(F)F)cc(C(F)(F)F)c2)c2ccccc21 | 272 | Active | 55 | 0.89 | 161 | Activity [4]: 132%
4 | [O-][s+]1cc(Nc2cc(C(F)(F)F)cc(C(F)(F)F)c2)c2ccccc21 (stereo unspecified) | 87.4 |  | 127 | 0.17 | 111 | Activity [4]: 108%
5 | O=S1(=O)N=C(Nc2cc(C(F)(F)F)cc(C(F)(F)F)c2)c2ccc(Br)cc21 |  | Active |  | 0.07 |  | 
6 | CS(=O)(=O)c1cc(NC2=NS(=O)(=O)c3ccccc32)cc(S(C)(=O)=O)c1 |  |  |  | 0 |  | 
7 | O=S1(=O)N=C(Nc2cc(F)cc(F)c2)c2cc(Br)ccc21 |  | Active |  | 0.37 |  | 
8 | O=S1(=O)C=C(Nc2cc(C(F)(F)F)cc(C(F)(F)F)c2)c2ccccc21 |  | Active |  | 0.44 |  | 
9 | COc1ccc2c(c1)C(Nc1cc(C(F)(F)F)cc(C(F)(F)F)c1)=NS2(=O)=O |  |  |  | -0.29 |  | 
10 | O=S1(=O)N=C(Nc2cc(C(F)(F)F)cc(C(F)(F)F)c2)c2cc(F)ccc21 |  |  |  | -0.14 |  | 
11 | COC(=O)c1cc(NC2=NS(=O)(=O)c3ccccc32)cc(C(=O)OC)c1 |  |  |  | 0.02 |  | 
12 | O=C(O)c1cc(NC2=NS(=O)(=O)c3ccccc32)cc(C(=O)O)c1 |  | Active |  | 0.74 |  | 
13 | CN(C1=NS(=O)(=O)c2ccccc21)c1cc(C(F)(F)F)cc(C(F)(F)F)c1 | 96.6 | Active | 97 | 0.44 | 124 | 
14 | N#Cc1ccc2c(c1)C(Nc1cc(C(F)(F)F)cc(C(F)(F)F)c1)=NS2(=O)=O |  | Active |  | 0.83 |  | 
15 | O=S1(=O)N=C(Nc2cc(C(F)(F)F)cc(C(F)(F)F)c2)c2cc(Cl)ccc21 |  |  |  | -0.1 |  | 
16 | O=S1(=O)N=C(Oc2cc(C(F)(F)F)cc(C(F)(F)F)c2)c2ccccc21 | 97.6 | Active | 124 | 0.07 | 105 | 
17 | O=S1(=O)N=C(Nc2cc(C(F)(F)F)cc(C(F)(F)F)c2)c2cc(Br)ccc21 | 432 | Active | 117 | 0.87 | 265 | Activity [7]: 110%; Activity [8]: 88%; Activity [9]: 93.3%; Activity [4]: 218%; Activity [10]: 116%

Continued, in another order:

Row | Activity [1] [%] | Activity [2] | Activity [3] [%] | ΔTm [5] [°C] | Activity [6] [%] | SMILES | also measured
18 | 89.4 | Active | 102 | 0.74 | 77.9 | O=S1(=O)N=C(Nc2cccc(C(F)(F)F)c2)c2ccccc21 | Activity [4]: 80.9%
19 |  | Active |  | 0.29 |  | O=S1(=O)N=C(Nc2ccc(F)c(F)c2)c2ccccc21 | 
20 |  |  |  | 0.07 |  | O=S1(=O)N=C(Nc2cc(F)ccc2F)c2ccccc21 | 
21 | 95.1 | Active | 90 | 0.44 | 85.7 | O=S1(=O)N=C(Nc2ccc(C(F)(F)F)cc2)c2ccccc21 | Activity [4]: 76.8%
22 |  |  |  | 0.17 |  | O=S1(=O)N=C(Nc2cccc(F)c2)c2ccccc21 | 
23 |  |  |  | -0.13 |  | CC(=O)c1cccc(NC2=NS(=O)(=O)c3ccccc32)c1 | 
24 |  | Active |  | 0 |  | COc1cc(NC2=NS(=O)(=O)c3ccccc32)cc(OC)c1 | 
25 |  |  |  | 0.07 |  | N#Cc1cccc(NC2=NS(=O)(=O)c3ccccc32)c1 | 
26 |  | Active |  | 0.96 |  | N#Cc1cc(NC2=NS(=O)(=O)c3ccccc32)cc(C(F)(F)F)c1 | 
27 |  |  |  | 0.3 |  | O=S1(=O)N=C(Nc2ccc(F)cc2)c2ccccc21 | 
28 | 126 |  | 90 | 0.02 | 140 | O=S1(=O)N=C(Nc2ccccc2)c2ccccc21 | Activity [4]: 96.3%
29 |  |  |  | -0.15 |  | O=S1(=O)N=C(Nc2cccc(F)c2F)c2ccccc21 | 
30 |  | Active |  | 1.28 |  | COC(=O)c1cc(C#N)cc(NC2=NS(=O)(=O)c3ccccc32)c1 | 
31 |  |  |  | 0.22 |  | O=S1(=O)N=C(Nc2ccccc2F)c2ccccc21 | 
32 |  |  |  | 0.14 |  | O=S1(=O)N=C(Nc2ccc(F)cc2F)c2ccccc21 | 
33 | 214 | Active | 72 | 0.55 | 146 | O=S1(=O)N=C(Nc2cc(F)cc(F)c2)c2ccccc21 | Activity [4]: 185%
